# “Also recorded” adds a separate entry of the source.
# Key:
# [1] = target: T1, CDK1-cyclin B1 (Homo sapiens, UniProt P06493); assay: in vitro kinase assay, CDK1-cyclin B1 phosphorylation of PBK/TOPK; type: biochemical; conditions: peptide 0-20 μM
# T1 construct: purchased New England Biolabs
# Experimental: After 30 minutes incubation at 30° C., the reactions were terminated by addition of SDS-sample buffer. After boiling, the protein samples were electrophoresed and autoradiographed.
# (§1) To inhibit the phosphorylation of PBK/TOPK at Thr9 by CDK1-cyclin B1, we designed permeable peptide (pp1-18) identical to the N-terminus (1-18 amino acids) of PBK/TOPK ([…]-G-[…]: SEQ ID NO: 99) was synthesized by Sigma-Aldrich. The efficacy of the peptide blocking the CDK1-cyclin B1-induced phosphorylation of PBK/TOPK was estimated by in vitro kinase assay according to in vitro kinase section. […] The phosphorylation of PBK/TOPK and cyclin B1 proteins were observed by SDS-PAGE and autoradiography. For the cell proliferation assay, T47D and HMEC cells were seeded at 1.3×10^4 cells in a 12-well plate, respectively. At the following day, each concentration (0, 2.5, 5, and 10 μM) of pp1-18 peptide was treated everyday, and cell viability was measured by MTT assay at 5th day. A significance of the pp 1-18 peptide to suppress T47D cell growth was statistically evaluated by the Student's t-test. To inhibit the phosphorylation of PBK/TOPK in mitotic cells by using pp1-18 peptide, T47D cells were seeded at 1×10^5 cells in a 60 mm dish. […]
# [2] = system: PBK/TOPK; assay: western blot of PBK/TOPK phosphorylation in nocodazole-treated mitotic cells with pp1-18; type: cell-based, human; conditions: T47D; nocodazole plus 10 μM peptide, 18 or 24 hours
# From the text: as §1, with “dish. Two days after incubation, both nocodazole (0.3 μg/mL) and the permeable peptide (10 μM) were treated for further 18 or 24 hours before collection, and then phosphorylation of PBK/TOPK was investigated by western blotting using anti-PBK/TOPK monoclonal antibody and FACS analysis.” for “dish.”
# [3] = system: T47D cells; assay: phase contrast microscopy of cells treated with pp1-18; type: cell-based, human; conditions: 50 μM peptide
# [4] = system: T47D cells; assay: FACS cell cycle analysis with nocodazole and pp1-18; type: cell-based, human; conditions: 24 hours after treatment of nocodazole, 10 μM peptide
# From the text: as §1, with “dish. Two days after incubation, both nocodazole (0.3 μg/mL) and the permeable peptide (10 μM) were treated for further 18 or 24 hours before collection, and then phosphorylation of PBK/TOPK was investigated by western blotting using anti-PBK/TOPK monoclonal antibody and FACS analysis.” for “dish.”
# [5] = system: T47D cells; assay: cell proliferation MTT assay with pp1-18 peptide; type: cell-based, human; conditions: 0, 2.5, 5 and 10 μM every day; MTT at 5th day
# From the text: as §1, with “dish. Two days after incubation, both nocodazole (0.3 μg/mL) and the permeable peptide (10 μM) were treated for further 18 or 24 hours before collection, and then phosphorylation of PBK/TOPK was investigated by western blotting using anti-PBK/TOPK monoclonal antibody and FACS analysis.” for “dish.”
# [6] = system: HMEC cells; assay: cell proliferation MTT assay with pp1-18 peptide; type: cell-based, human; conditions: 0, 2.5, 5 and 10 μM every day; MTT at 5th day
# From the text: as §1, with “dish. Two days after incubation, both nocodazole (0.3 μg/mL) and the permeable peptide (10 μM) were treated for further 18 or 24 hours before collection, and then phosphorylation of PBK/TOPK was investigated by western blotting using anti-PBK/TOPK monoclonal antibody and FACS analysis.” for “dish.”
# T1 sequence (P06493 whole entry): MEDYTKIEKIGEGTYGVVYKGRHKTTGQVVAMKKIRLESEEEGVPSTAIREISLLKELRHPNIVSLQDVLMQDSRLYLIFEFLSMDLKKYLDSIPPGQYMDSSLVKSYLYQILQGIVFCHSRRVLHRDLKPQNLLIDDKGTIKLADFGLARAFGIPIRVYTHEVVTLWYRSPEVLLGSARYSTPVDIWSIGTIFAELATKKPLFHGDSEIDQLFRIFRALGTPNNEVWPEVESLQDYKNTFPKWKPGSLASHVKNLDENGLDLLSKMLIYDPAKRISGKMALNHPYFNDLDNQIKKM
# T1 sequence (P14635 whole entry partner): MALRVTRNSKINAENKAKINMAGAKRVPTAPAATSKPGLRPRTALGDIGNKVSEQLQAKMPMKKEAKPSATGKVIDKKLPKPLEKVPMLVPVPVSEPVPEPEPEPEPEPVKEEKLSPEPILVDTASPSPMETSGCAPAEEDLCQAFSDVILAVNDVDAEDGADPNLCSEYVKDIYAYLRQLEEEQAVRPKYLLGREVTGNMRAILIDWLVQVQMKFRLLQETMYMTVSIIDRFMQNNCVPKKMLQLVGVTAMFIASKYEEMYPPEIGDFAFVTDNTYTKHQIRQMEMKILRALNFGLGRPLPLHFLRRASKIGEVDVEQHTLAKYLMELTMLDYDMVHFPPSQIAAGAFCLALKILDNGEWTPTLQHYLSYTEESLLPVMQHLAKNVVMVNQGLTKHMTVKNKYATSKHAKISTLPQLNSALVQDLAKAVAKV
substance,measurement,setting,value
RRRRRRRRRRR-G-MEGISNFKTPSKLSEKKK (RRRRRRRRRRRGMEGISNFKTPSKLSEKKK; N-terminal poly-arginine (R11) and glycine linker; An artificialy designed dominant negative) [pp1-18],phosphorylation of recombinant PBK/TOPK protein by CDK1-cyclin B1,[1],diminished in dose-dependent manner
same,phosphorylation of PBK/TOPK in mitotic cells,[2],drastically reduced
same,cellular morphology,[3],long intercellular bridge; also recorded: prolonged midbodies by abnormal cytokinesis
same,shift to G2/M phase of cell cycle,[4],blocked shift to G2/M phase
same,growth of T47D breast cancer cells,[5],significantly suppressed cell growth; also recorded: clearly suppressed the growth
same,growth of HMEC cells,[6],did not affect the growth; also recorded: no effect
